From PubChem BioAssay AID1645866 (Buhrlage Lab, Dana-Farber Cancer Institute and Novartis …, 2021)
The source made the active and inactive calls.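 Rule for the calls: active = in confirmatory dose-response testing, peak deubiquitinase inhibition of 30% or more; inactive = the rest.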

Biological target: Ubiquitin carboxyl-terminal hydrolase 28 (Homo sapiens) (UniProt Q96RU2)
Assay: Concentration-response biochemical assay confirming initial hits as inhibitors of ubiquitin-specific protease 28 (AID 1645866)
Settings: purified USP28, ubiquitin-rhodamine fluorescence, 30 min

Ubiquitin carboxyl-terminal hydrolase 28 (Homo sapiens), sequence (Q96RU2 whole entry, looked up): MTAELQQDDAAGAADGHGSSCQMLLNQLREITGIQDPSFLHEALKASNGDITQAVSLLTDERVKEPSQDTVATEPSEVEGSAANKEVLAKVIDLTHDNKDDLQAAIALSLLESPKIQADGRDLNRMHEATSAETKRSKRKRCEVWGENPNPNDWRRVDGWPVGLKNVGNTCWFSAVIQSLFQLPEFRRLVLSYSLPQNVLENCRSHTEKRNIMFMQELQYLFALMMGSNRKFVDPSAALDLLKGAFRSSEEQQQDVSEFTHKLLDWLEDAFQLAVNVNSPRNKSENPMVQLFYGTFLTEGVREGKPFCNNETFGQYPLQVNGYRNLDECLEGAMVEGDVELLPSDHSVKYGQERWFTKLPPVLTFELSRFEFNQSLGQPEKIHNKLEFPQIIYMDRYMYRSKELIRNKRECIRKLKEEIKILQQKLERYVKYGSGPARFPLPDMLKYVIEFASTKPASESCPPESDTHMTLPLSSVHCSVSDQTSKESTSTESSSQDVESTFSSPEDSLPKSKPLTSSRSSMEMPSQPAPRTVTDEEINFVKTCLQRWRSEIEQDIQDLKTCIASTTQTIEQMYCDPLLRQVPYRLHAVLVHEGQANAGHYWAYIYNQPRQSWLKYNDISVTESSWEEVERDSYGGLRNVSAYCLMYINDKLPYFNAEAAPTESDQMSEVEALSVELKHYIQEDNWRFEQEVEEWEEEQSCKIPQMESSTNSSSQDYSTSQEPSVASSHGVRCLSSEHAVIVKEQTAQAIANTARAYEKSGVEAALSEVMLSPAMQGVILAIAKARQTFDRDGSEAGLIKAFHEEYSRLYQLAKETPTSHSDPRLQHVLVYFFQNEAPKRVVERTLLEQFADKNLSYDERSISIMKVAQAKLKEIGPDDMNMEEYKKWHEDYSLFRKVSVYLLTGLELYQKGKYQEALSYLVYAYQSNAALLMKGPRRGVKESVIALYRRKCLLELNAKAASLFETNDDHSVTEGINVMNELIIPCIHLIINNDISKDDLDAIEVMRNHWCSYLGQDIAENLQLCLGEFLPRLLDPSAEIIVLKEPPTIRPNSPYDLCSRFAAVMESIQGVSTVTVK

`CCCCc1ccc(-c2cc(C(=O)NCCN3CCOCC3)c3cc(Br)ccc3n2)cc1` and `O=C(CCc1ccc(S(=O)(=O)N2CCOCC2)cc1)Nc1ccc2c(c1)OCCO2` are within 1.5-fold of each other in IC50: 14.9 µM for the first, 13.1 µM for the second.

Going from `Cc1cnnn1-c1ccc(C(=O)Nc2cc(Cl)ccc2Cl)cc1` to `O=C(Cn1cnc2c(cnn2-c2ccc(Cl)cc2)c1=O)NCc1ccccc1Cl`, the IC50 falls from 43.5 µM to 9.05 µM (4.8-fold). The second is the more potent here.

`COc1ccc(CNC(=O)CN2C(=O)CC(c3ccccc3)=Nc3ccccc32)cc1` and `COc1ccc(CNC(=O)Nc2cccc3ccccc23)cc1` are within 1.5-fold of each other in IC50: 11.9 µM for the first, 9.99 µM for the second.

Going from `COc1ccc(OC)c(-c2cc(C(=O)Nc3c(C)nn(Cc4ccccc4)c3C)no2)c1` to `COc1ccccc1-c1nc(Cn2nnc(C(=O)Nc3cc(C)cc(C)c3)c2N)c(C)o1`, the IC50 rises from 1.83 µM to 37.4 µM (20-fold).

First: Cc1ccc(C(=O)NCC(=O)Nc2nc3ccccc3[nH]2)c(C)c1
Second: Cc1ccc(NC(=O)c2nnn(-c3ccccc3Br)c2C)cc1C
The IC50 of the first is 16-fold higher: 24.6 µM for the first, 1.53 µM for the second. The second is the more potent here.

Compared with `COc1ccccc1C(=O)N1CCC(S(=O)(=O)c2ccc(-c3ccco3)cc2)CC1`, `COc1ccc(C(=O)Nc2ccc3c(c2)C(=O)N(C)c2ccccc2O3)cc1` is 4.8-fold lower in IC50: 42.9 µM for the first, 8.9 µM for the second.

Going from `O=C(Nc1ccc(NS(=O)(=O)c2ccc3c4c(cccc24)CC3)cc1)c1ccccc1` to `NS(=O)(=O)c1ccc(NS(=O)(=O)c2ccc(NC(=O)Nc3ccc(Cl)cc3)cc2)cc1`, the IC50 falls from 37.7 µM to 3.85 µM (9.8-fold).

Going from `Cc1cc(NC(=O)c2cc(-c3cccnc3)n[nH]2)ccc1Br` to `Nc1c(C(=O)Nc2ccc3c(c2)OCO3)sc2nc(-c3cccnc3)ccc12`, the IC50 rises from 1.03 µM to 1.98 µM (1.9-fold).

`O=C(Cn1nnc(-c2ccc(F)cc2)n1)NCCc1ccccc1` and `Cc1cccc(-n2cnc(C(=O)NCc3ccc(F)cc3)c2)n1` are within 1.5-fold of each other in IC50: 44.3 µM for the first, 35.6 µM for the second.

Going from `O=C(Cn1c(CSc2ccccc2)nc2ccccc21)Nc1ccccc1F` to `O=C(CC1C(=O)N(Cc2ccccc2)c2nc3ccccc3n21)NCCc1ccccc1` (stereo unspecified), the IC50 falls from 26.4 µM to 15.9 µM (1.7-fold). The second is the more potent here.

Compared with `Cc1cc(NC(=O)c2nnn(-c3ccccc3Cl)c2C)no1`, `COc1ccccc1-n1nnc(C(=O)Nc2ccc(Oc3ccccc3)cc2)c1C` is 4.1-fold higher in IC50: 1.49 µM for the first, 6.16 µM for the second.

First: Cc1ccc(NC(=O)c2cnc(N3CCOCC3)nc2)cc1F
Second: Cn1c(=O)c2cc(C(=O)Nc3ccc(F)cc3)cnc2n(C)c1=O
The IC50 of the first is 1.6-fold higher: 33.3 µM for the first, 20.8 µM for the second. The second is the more potent here.

Going from `Cc1ccc(NC(=O)Cc2nnc3cc(-c4nc(C)no4)ccn23)cc1` to `Cc1noc(-c2cccc(=O)n2CC(=O)Nc2ccc(C)c(C)c2)n1`, the IC50 rises from 5.02 µM to 17.4 µM (3.5-fold). The first is the more potent here.

`COc1ccccc1S(=O)(=O)N1CC[C@@H]2CN(C)[C@@H]2C1` and `Cc1ccc(C)c(NS(=O)(=O)c2cc(-c3cnc(C4CC4)o3)ccc2C)c1` are within 1.5-fold of each other in IC50: 35.1 µM for the first, 34.7 µM for the second.

Going from `COc1ccc(-c2cc(-c3ccc(O)cc3)nc(N)c2C#N)cc1OC` to `COc1ccc(CCNC(=O)CCCn2c(=O)c3ccccc3n(CC(=O)OCc3ccccc3)c2=O)cc1OC`, the IC50 falls from 32.6 µM to 16 µM (2-fold). The second is the more potent here.

`C[C@@H](C(=O)NCc1ccc(F)cc1)N1C(=O)N2CCc3c([nH]c4ccccc34)[C@@]2(C)C1=O` and `COc1ccc(CCn2cnc3c([nH]c4ccccc43)c2=O)cc1` are within 1.5-fold of each other in IC50: 14.9 µM for the first, 12.5 µM for the second.

First: CNc1nc2c(c(=O)n1Cc1ccccc1)CN(C(=O)c1ccc(CN)cc1)CC2
Second: CNC(=O)c1cc2c(=O)n3cccc(C)c3nc2n1Cc1ccccc1
The IC50 of the first is 2.6-fold higher: 48.4 µM for the first, 18.8 µM for the second.

Compared with `Cc1noc(-c2cc(=O)n(CC(=O)NCc3ccccc3F)c3ccccc23)n1`, `O=C(Cn1c(=O)nc(-c2ccccc2)c2ccccc21)NCc1ccc2c(c1)OCO2` is 2.8-fold higher in IC50: 9.89 µM for the first, 27.9 µM for the second.

`Cc1cccc(C)c1NC(=O)Cn1c(=O)n(CCCCC(=O)NCc2ccc3c(c2)OCO3)c(=O)c2ccccc21` and `Cc1cc(C)c(NC(=O)Cn2c(=O)n(CCC(=O)NCc3ccc4c(c3)OCO4)c(=O)c3sccc32)c(C)c1` are within 1.5-fold of each other in IC50: 1.88 µM for the first, 2.67 µM for the second.

Going from `Fc1ccc(Cc2nc(-c3ccc4nncn4c3)no2)cc1` to `Cc1ccc2[nH]c(=O)c(-c3nc4ccc(C)cn4c3NCc3ccc(F)cc3)cc2c1`, the IC50 falls from 15.1 µM to 1.93 µM (7.8-fold).

`Cc1cccc(NC(=O)CN2C(=O)CC(c3ccccc3)S(=O)(=O)c3ccccc32)c1C` (stereo unspecified) and `O=C(COc1ccc2ccccc2c1)Nc1cccc2ccccc12` are within 1.5-fold of each other in IC50: 21.6 µM for the first, 22.4 µM for the second.

First: O=C(c1nnn(Cc2ccc(Cl)cc2)c1-n1cccc1)N1CCCC1
Second: COc1cccc(-c2cc(C(=O)N3CCN(c4ccc(N5CCOCC5)nn4)CC3)[nH]n2)c1
The IC50 of the first is 1.6-fold higher: 5.97 µM for the first, 3.83 µM for the second.

`CCCCc1nc2sc3c(SCC(=O)Nc4cccc(C)c4)ncnc3c2c2c1CCC2` and `O=C(CSc1ncnc2c1oc1ccccc12)Nc1ccc2c(c1)OCCO2` are within 1.5-fold of each other in IC50: 14 µM for the first, 17.1 µM for the second.

Compared with `COc1ccc(/C=C/C(=O)Nc2ccc3c(c2)OCCO3)cc1Br`, `COc1cc(N)c(Cl)cc1C(=O)OCC(=O)c1ccc2c(c1)OCCO2` is 4.6-fold higher in IC50: 1.34 µM for the first, 6.12 µM for the second.

First: CNC(=O)c1cc2nc(N(C)C)n(-c3ccccc3)c2s1
Second: Cc1nc(-c2cccc(NC(=O)c3ccccc3Cl)c2)no1
The IC50 of the first is 1.6-fold higher: 27.1 µM for the first, 16.6 µM for the second. The second is the more potent here.

`CCOCCCn1c(SCC(=O)Nc2ccccc2C(F)(F)F)nc2ccccc2c1=O` and `COc1ccc(NC(=O)c2ccccc2OCC(=O)Nc2ccccc2C(F)(F)F)c(C)c1` are within 1.5-fold of each other in IC50: 17 µM for the first, 23.4 µM for the second.

Compared with `COc1ccc(NC(=O)Cn2cc(C(=O)c3ccc(F)cc3)c(=O)c3cc(C)ccc32)cc1`, `COc1ccc2nc(SCC(=O)Nc3ccc(NC(C)=O)cc3)c(C)cc2c1` is 2.1-fold lower in IC50: 19.7 µM for the first, 9.45 µM for the second.

`CCOC(=O)c1c(C)oc2nc(CSc3ccccc3)[nH]c(=O)c12` and `COc1ccc(Cl)c(NC(=O)C2CC(=O)Nc3cc(-c4ccccc4)nn32)c1` (stereo unspecified) are within 1.5-fold of each other in IC50: 17 µM for the first, 17.3 µM for the second.

Going from `CCC(=O)Nc1nc2cc(NC(=O)Nc3cc(C)cc(C)c3)ccc2s1` to `Cc1nc2ccc(NC(=O)COc3ccccc3[N+](=O)[O-])cc2s1`, the IC50 rises from 2.97 µM to 11.8 µM (4-fold). The first is the more potent here.

`O=C(CC(C(=O)Nc1ccc2c(c1)OCO2)C(=O)c1ccccc1)Nc1ccc(Cl)cc1F` (stereo unspecified) and `COc1ccc(-c2cc3c(=O)n(CC(=O)Nc4ccccc4Cl)ccn3n2)cc1` are within 1.5-fold of each other in IC50: 9.87 µM for the first, 10 µM for the second.

Compared with `N#Cc1ccccc1OCc1csc(-c2ccccc2)n1`, `c1ccc(Cc2nn3c(-c4cccnc4)nnc3c3ccccc23)cc1` is 2.4-fold lower in IC50: 5.97 µM for the first, 2.53 µM for the second.

Compared with `Cc1cc(O)c2c3c(c(O)c4c(c13)O[C@@H](C)C4(C)C)C(=O)C2=O`, `CCCCC/C=C/C=C/C(=O)OC1C(O)CC(c2ccc3c(c2O)C(=O)c2c(O)cc4cc(C)cc(O)c4c2C3=O)OC1C` (stereo unspecified) is 1.6-fold lower in IC50: 23.5 µM for the first, 14.6 µM for the second.

`Cc1cc(C)cc(N(CCC(=O)Nc2ccc(N3CCOCC3)cc2)S(=O)(=O)c2ccc(Cl)cc2)c1` and `CC(=O)Nc1ccc(S(=O)(=O)NCc2ccc(C(=O)NCc3ccc(C)cc3)cc2)cc1` are within 1.5-fold of each other in IC50: 12.9 µM for the first, 19.2 µM for the second.

Going from `COc1cc2c(c3oc4cccc(O)c4c(=O)c13)C1C=COC1O2` (stereo unspecified) to `CC(=O)Nc1cc(-c2cccc(O)c2)cn2c(-c3cnn(C)c3)cnc12`, the IC50 falls from 36.7 µM to 5.99 µM (6.1-fold). The second is the more potent here.

Going from `CC(=O)c1cccc(NC(=O)c2ccc(CN(c3ccc(C)c(C)c3)S(C)(=O)=O)cc2)c1` to `O=C(NCc1ccc(-c2nc3cnccc3o2)cc1)c1ccccc1F`, the IC50 rises from 2.2 µM to 15.3 µM (7-fold). The first is the more potent here.

`O=C(COc1cccc2ccc(N3CCC(Cc4ccccc4)CC3)nc12)NCc1ccc(F)cc1` and `Cc1nc(N2CCCC2)ncc1-c1cc(=O)[nH]c(N2CCc3ccccc3C2)n1` are within 1.5-fold of each other in IC50: 20.7 µM for the first, 21.9 µM for the second.

`O=C(Cn1nc2c3c4c(sc3ncn2c1=O)CCCCC4)Nc1ccc(Cl)cc1F` showed an IC50 of 1.83 µM.

With `Cc1ccc(Cl)cc1NC(=O)COC(=O)c1ccc2ccccc2n1` the IC50 was > 50 µM (inactive).
For `Cc1ccccc1N1C(=O)/C(=C\c2cccn2C)c2ccccc2C1=O`, the IC50 was > 50 µM (inactive).
With `O=C(COC(=O)C1CCCN1C(=O)C12CC3CC(CC(C3)C1)C2)c1ccc(Cl)cc1` (stereo unspecified) the IC50 was > 50 µM (inactive).
`O=[N+]([O-])c1ccc2c(c1)nc1n2CCN(Cc2ccco2)C1` was tested, and the IC50 was > 50 µM (inactive).
With `CCOC(=O)c1cn(C2CC2)c2cc(N3CCNCC3)c([N+](=O)[O-])cc2c1=O` the IC50 was > 50 µM (inactive).
`Cc1ccc2nc(N3CCc4ccccc4C3)c3nncn3c2c1` was tested, and the IC50 was > 50 µM (inactive).
In the case of `Cc1ccc(Nc2nc(Nc3cccc(F)c3)nc3nccnc23)c(C)c1`, the IC50 is reported as > 50 µM (inactive).
`Cc1sc(-c2cccnc2)nc1OC(=O)c1ccc(Cl)c(Cl)c1` was tested, and the IC50 was > 50 µM (inactive).
For `CCOc1ccc(S(=O)(=O)Nc2ccc[nH]c2=O)cc1`, the IC50 was > 50 µM (inactive).
`CO[C@H]1/C=C/OC2(C)Oc3c(C)c(O)c4c(c3C2=O)C2(C=C(NC(=O)/C(C)=C\C=C\[C@H](C)[C@H](O)[C@@H](C)[C@@H](O)[C@@H](C)[C@H](OC(C)=O)C1C)C4=O)OCC(=O)O2` (stereo partly specified) was tested, and the IC50 was > 50 µM (inactive).
With `Cc1ccc2nc(-c3cccc(-c4nc5ccc(C)cc5[nH]4)n3)[nH]c2c1` the IC50 was > 50 µM (inactive).
With `Cc1ccc(OC(=O)c2cn(-c3ccccc3)nc2-c2cccnc2)cc1` the IC50 was > 50 µM (inactive).
`O=C(c1ccc2occc2c1)N1CCC(S(=O)(=O)c2ccc(-c3ccco3)cc2)CC1` was tested, and the IC50 was > 50 µM (inactive).
With `Cc1ccc(-c2ccc(N3CCOCC3)nn2)cc1S(=O)(=O)N1CCOCC1` the IC50 was > 50 µM (inactive).
With `O=S1(=O)CCN(Cc2ccccc2)c2c(F)nc(N3CCCCC3)c(F)c21` the IC50 was > 50 µM (inactive).
With `O=C(C1CCCN(S(=O)(=O)N2CCCCCC2)C1)N1CCN(c2ccccc2)CC1` (stereo unspecified) the IC50 was > 50 µM (inactive).
For `O=C1CC(c2ccco2)Cc2[nH]c(=O)c(-c3nc(-c4ccc(Cl)cc4)cs3)cc21` (stereo unspecified), the IC50 was > 50 µM (inactive).
`CC1=C2C(=NCCN1)C(=O)N(c1ccccc1)C2c1cccnc1` (stereo unspecified) was tested, and the IC50 was > 50 µM (inactive).
`Cc1cnc(CN2CCCC(c3ccc4cn[nH]c4n3)C2)cn1` (stereo unspecified) was tested, and the IC50 was > 50 µM (inactive).
With `Cn1c(C(=O)NCc2ccccn2)cc2c(=O)[nH]c3ccccc3c21` the IC50 was > 50 µM (inactive).
With `c1cnc(-c2n[nH]c(C3CCN(C4CCNC4)CC3)n2)cn1` (stereo unspecified) the IC50 was > 50 µM (inactive).
`O=C(CCCCn1c(=O)c2ccccc2n(CC(=O)Nc2ccc(F)c(Cl)c2)c1=O)NCc1ccco1` was tested, and the IC50 was > 50 µM (inactive).
In the case of `COc1ccc(S(=O)(=O)N2CCN3Cc4ccccc4N(C)CC3C2)cc1` (stereo unspecified), the IC50 is reported as > 50 µM (inactive).
With `CCCNc1cc(-c2ccccc2)nc2nc(-c3cccnc3)nn12` the IC50 was > 50 µM (inactive).
With `O=C(COc1nsnc1N1CCOCC1)Nc1ccccc1F` the IC50 was > 50 µM (inactive).
For `Cn1nccc1C(=O)N1CCCCC1c1ncc(Cc2ccc(Cl)cc2)o1` (stereo unspecified), the IC50 was > 50 µM (inactive).
With `O=C(Cn1ncc2c(N3CCCCCC3)ncnc21)NCc1ccccc1` the IC50 was > 50 µM (inactive).
For `CSc1nc2ncc3c(=O)n(CCc4ccccc4)ccc3n2n1`, the IC50 was > 50 µM (inactive).
